target: T1, hmGluR1 receptor (Homo sapiens, UniProt Q13255); experiment: IC50 determination: intracellular calcium mobilization (FLIPR) upon Quisqualate stimulation in CHO cells stably expressing hmGluR1; type: cell-based; settings: against Quisqualate 1 μM (EC80), FLIPR calcium mobilization, read-out: IC50 Class
T1 construct: expressed in transfected cells
Description: A CHO cell line stably expressing hmGluR1 receptor was established. One day prior to assay, cells were split in growth media at concentration of 50,000 cells/well in a volume of 100 μl and seeded into black clear-bottom 96-well plates. After two to six hours, when cells were well attached to the plate, growth medium was replaced with assay medium (100 μL) consisting of DMEM high glucose, supplemented with GPT (1 U/mL) and Sodium pyruvate, 1 mM. Following overnight incubation, medium was discarded and cells were loaded for 2 h with dye from the Calcium 3 Assay Reagent Kit (Molecular Devices, # R8033), prepared according to manufacturers' instructions. […] Test compounds were added 10 minutes before Quisqualate.

T1 sequence (Q13255 19-1194): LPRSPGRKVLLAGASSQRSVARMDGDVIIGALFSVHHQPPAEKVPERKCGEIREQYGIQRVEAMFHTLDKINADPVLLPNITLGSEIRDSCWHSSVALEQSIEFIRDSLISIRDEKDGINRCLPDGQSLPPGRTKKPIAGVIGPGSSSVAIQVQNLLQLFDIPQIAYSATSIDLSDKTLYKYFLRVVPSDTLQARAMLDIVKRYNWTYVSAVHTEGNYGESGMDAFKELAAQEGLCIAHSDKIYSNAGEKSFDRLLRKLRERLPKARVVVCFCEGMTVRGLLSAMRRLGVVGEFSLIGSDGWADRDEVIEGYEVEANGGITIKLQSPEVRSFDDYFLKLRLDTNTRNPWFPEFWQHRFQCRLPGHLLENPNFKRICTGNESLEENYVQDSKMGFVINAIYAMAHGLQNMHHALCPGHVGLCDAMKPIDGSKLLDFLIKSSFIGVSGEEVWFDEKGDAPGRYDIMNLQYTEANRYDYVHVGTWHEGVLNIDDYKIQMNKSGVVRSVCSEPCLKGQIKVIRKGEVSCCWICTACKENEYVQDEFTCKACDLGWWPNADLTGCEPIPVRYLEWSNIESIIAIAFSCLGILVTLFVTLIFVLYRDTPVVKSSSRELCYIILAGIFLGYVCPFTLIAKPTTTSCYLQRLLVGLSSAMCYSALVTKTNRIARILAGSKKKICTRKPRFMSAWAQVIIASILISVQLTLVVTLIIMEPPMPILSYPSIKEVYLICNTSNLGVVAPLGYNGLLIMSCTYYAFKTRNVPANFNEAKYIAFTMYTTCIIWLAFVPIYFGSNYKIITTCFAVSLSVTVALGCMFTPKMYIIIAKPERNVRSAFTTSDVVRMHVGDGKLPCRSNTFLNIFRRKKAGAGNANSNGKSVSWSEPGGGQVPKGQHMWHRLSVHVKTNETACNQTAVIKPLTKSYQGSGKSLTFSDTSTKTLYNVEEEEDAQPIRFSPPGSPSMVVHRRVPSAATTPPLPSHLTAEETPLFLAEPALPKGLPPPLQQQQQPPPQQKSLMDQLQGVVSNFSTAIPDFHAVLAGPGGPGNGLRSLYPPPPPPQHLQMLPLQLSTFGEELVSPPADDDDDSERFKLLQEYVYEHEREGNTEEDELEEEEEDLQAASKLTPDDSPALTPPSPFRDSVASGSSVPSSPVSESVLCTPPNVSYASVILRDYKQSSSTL

Structure (SMILES) | IC50 [nM]
COc1ccc(-n2cnc3c(sc4nccc(OC)c43)c2=O)c(F)c1 [25E] | > 1000
COc1ccnc2sc3c(=O)n(-c4ccc5c(c4)CCO5)cnc3c12 [25F] | 150 to 1000
CCc1ccc(-n2cnc3c(sc4nccc(OC)c43)c2=O)cc1 [25G] | 150 to 1000

same assay, conditions: against Quisqualate 1 μM (EC80), FLIPR calcium mobilization, read-out: mGluR1 IC50

Structure (SMILES) | IC50 [nM]
Cc1cc(-n2cnc3c(sc4nccc(N(C)C)c43)c2=O)ccc1Br [7DR] | 1.73
CN(C)c1ccnc2sc3c(=O)n(-c4ccc(Br)c(F)c4)cnc3c12 [7DV] | 1.71
CN(C)c1ccnc2sc3c(=O)n(C4CCCCC4)cnc3c12 [7Q] | 0.35
CN(C)c1ccnc2sc3c(=O)n(C4CCCCCC4)cnc3c12 [7X] | 0.68

same assay, conditions: against Quisqualate 1 μM (EC80), class symbols, read-out: mGIuR 1 IC50

Structure (SMILES) | IC50 [nM]
CN(C)c1ccnc2sc3c(=O)n(-c4ccc(C(F)(F)F)cc4)cnc3c12 [7DO] | < 50
Cc1ccc(-n2cnc3c(sc4nccc(N(C)C)c43)c2=O)cc1C#N [7DP] | 50 to 150
Cc1ccc(-n2cnc3c(sc4nccc(N(C)C)c43)c2=O)cc1Br [7DQ] | < 50
Cc1cc(-n2cnc3c(sc4nccc(N(C)C)c43)c2=O)ccc1Br [7DR] | < 50
CN(C)c1ccnc2sc3c(=O)n(-c4ccc(Br)c(C(F)(F)F)c4)cnc3c12 [7DS] | 150 to 1000
COc1cc(-n2cnc3c(sc4nccc(N(C)C)c43)c2=O)ccc1Br [7DT] | 150 to 1000
CN(C)c1ccnc2sc3c(=O)n(-c4ccc(Br)cc4F)cnc3c12 [7DU] | < 50
CN(C)c1ccnc2sc3c(=O)n(-c4ccc(Br)c(F)c4)cnc3c12 [7DV] | < 50
Cc1ccc(-n2cnc3c(sc4nccc(N(C)C)c43)c2=O)c(F)c1 [7DW] | < 50
Cc1cc(F)cc(-n2cnc3c(sc4nccc(N(C)C)c43)c2=O)c1 [7DX] | < 50
Cc1ccc(-n2cnc3c(sc4nccc(N(C)C)c43)c2=O)cc1I [7DY] | 50 to 150
Cc1ccc(F)c(-n2cnc3c(sc4nccc(N(C)C)c43)c2=O)c1 [7DZ] | < 50
CN(C)c1ccnc2sc3c(=O)n(-c4ccccc4)cnc3c12 [7D] | < 50
Cc1cc(-n2cnc3c(sc4nccc(N(C)C)c43)c2=O)ccc1I [7EA] | < 50
CN(C)c1ccnc2sc3c(=O)[nH]cnc3c12 [7E] | > 1000
CN(C)c1ccnc2sc3c(=O)n(-c4ccccc4Cl)cnc3c12 [7F] | 50 to 150
CN(C)c1ccnc2sc3c(=O)n(-c4ccc(F)cc4)cnc3c12 [7G] | < 50
CN(C)c1ccnc2sc3c(=O)n(-c4ccc(Br)cc4)cnc3c12 [7H] | < 50
CN(C)c1ccnc2sc3c(=O)n(Cc4ccc(Cl)cc4)cnc3c12 [7I] | > 1000
CCOC(=O)N1CCC(n2cnc3c(sc4nccc(N(C)C)c43)c2=O)CC1 [7J] | > 1000
CN(C)c1ccnc2sc3c(=O)n(-c4ccc(C#N)cc4)cnc3c12 [7K] | < 50
CN(C)c1ccnc2sc3c(=O)n(-c4cccc(Cl)c4)cnc3c12 [7L] | < 50
CN(C)c1ccnc2sc3c(=O)n(-c4ccc(I)cc4)cnc3c12 [7M] | > 1000
CN(C)c1ccnc2sc3c(=O)n(-c4ccc(Cl)cc4I)cnc3c12 [7N] | 150 to 1000
CN(C)c1ccnc2sc3c(=O)n(-c4cccnc4)cnc3c12 [7O] | 50 to 150

Structure (SMILES) | IC50 [nM]
CCCCn1cnc2c(sc3nccc(N(C)C)c32)c1=O [7P] | 50 to 150
CN(C)c1ccnc2sc3c(=O)n(C4CCCCC4)cnc3c12 [7Q] | < 50
CN(C)c1ccnc2sc3c(=O)n(Cc4cccc(Cl)c4)cnc3c12 [7R] | 150 to 1000
CN(C)c1ccnc2sc3c(=O)n(Cc4ccc(Cl)c(Cl)c4)cnc3c12 [7S] | > 1000
COc1ccc(-n2cnc3c(sc4nccc(N(C)C)c43)c2=O)cc1Cl [7T] | 50 to 150
CN(C)c1ccnc2sc3c(=O)n(-c4ccccn4)cnc3c12 [7U] | 50 to 150
COc1cc(-n2cnc3c(sc4nccc(N(C)C)c43)c2=O)c(OC)cc1Cl [7V] | > 1000
CN(C)c1ccnc2sc3c(=O)n(C4CCCC4)cnc3c12 [7W] | < 50
CN(C)c1ccnc2sc3c(=O)n(C4CCCCCC4)cnc3c12 [7X] | < 50
CN(C)c1ccnc2sc3c(=O)n(-c4ccc(OC(F)(F)F)cc4)cnc3c12 [7Y] | < 50
CN(C)c1ccnc2sc3c(=O)n(-c4ccc(OC(F)F)cc4)cnc3c12 [7Z] | < 50
O=c1c2sc3c(ccc[n+]3[O-])c2ncn1-c1ccccc1 [12A] | 150 to 1000
CN(C)c1cc[n+]([O-])c2sc3c(=O)n(-c4ccc(Cl)cc4)cnc3c12 [12B] | 50 to 150
CN(C)c1ccnc2sc3c(=O)n(-c4ccsc4)cnc3c12 [15AA] | < 50
CN(C)c1ccnc2sc3c(=O)n(-c4cccs4)cnc3c12 [15AB] | < 50
Cc1nn(C)c(C)c1-n1cnc2c(sc3nccc(N(C)C)c32)c1=O [15AC] | > 1000
Cc1noc(-n2cnc3c(sc4nccc(N(C)C)c43)c2=O)c1C [15AD] | 50 to 150
Cc1cc(-n2cnc3c(sc4nccc(N(C)C)c43)c2=O)no1 [15AE] | 50 to 150
CN(C)c1ccnc2sc3c(=O)n(-c4nnc(C(F)(F)F)s4)cnc3c12 [15AF] | 150 to 1000
CN(C)c1ccnc2sc3c(=O)n(-c4csc5ccccc45)cnc3c12 [15AG] | < 50
CN(C)c1ccnc2sc3c(=O)n(CCO)cnc3c12 [15A] | > 1000
CN(C)c1ccnc2sc3c(=O)n(CC4CC4)cnc3c12 [15B] | 150 to 1000
CN(C)c1ccnc2sc3c(=O)n(CC4CCCCC4)cnc3c12 [15C] | < 50
COCCn1cnc2c(sc3nccc(N(C)C)c32)c1=O [15D] | > 1000
CN(C)c1ccnc2sc3c(=O)n(C4CCOCC4)cnc3c12 [15E] | 50 to 150

Structure (SMILES) | IC50 [nM]
CN(C)c1ccnc2sc3c(=O)n(CC4CCCO4)cnc3c12 (centres unmarked) [15F] | 150 to 1000
CN(C)c1ccnc2sc3c(=O)n(C4CCNCC4)cnc3c12 [15G] | > 1000
CN(C)c1ccnc2sc3c(=O)n(Cc4ccco4)cnc3c12 [15H] | 150 to 1000
CN(C)c1ccnc2sc3c(=O)n(Cc4cccs4)cnc3c12 [15I] | 150 to 1000
CN(C)c1ccnc2sc3c(=O)n(C4CCC4)cnc3c12 [15J] | 50 to 150
CN(C)c1ccnc2sc3c(=O)n(C4CC4)cnc3c12 [15K] | > 1000
CCCn1cnc2c(sc3nccc(N(C)C)c32)c1=O [15L] | > 1000
CN(C)c1ccnc2sc3c(=O)n(C4CCC(C(C)(C)C)CC4)cnc3c12 (centres unmarked) [15M] | > 1000
CN(C)c1ccnc2sc3c(=O)n(CCN4CCOCC4)cnc3c12 [15N] | > 1000
CN(C)c1ccnc2sc3c(=O)n(CCN4CCCCC4)cnc3c12 [15O] | > 1000
CN(C)c1ccnc2sc3c(=O)n(C(C)(C)C)cnc3c12 [15P] | 150 to 1000
CN(C)c1ccnc2sc3c(=O)n(C4CCCCCCC4)cnc3c12 [15Q] | < 50
CN(C)c1ccnc2sc3c(=O)n([C@H]4CC[C@H](O)CC4)cnc3c12 [15T] | 150 to 1000
CN1CCC(n2cnc3c(sc4nccc(N(C)C)c43)c2=O)CC1 [15U] | 150 to 1000
CN(C)c1ccnc2sc3c(=O)n(Cc4ccsc4)cnc3c12 [15V] | 150 to 1000
CN(C)c1ccnc2sc3c(=O)n(-c4cc[nH]n4)cnc3c12 [15W] | > 1000
CN(C)c1ccnc2sc3c(=O)n(-c4nncs4)cnc3c12 [15X] | > 1000
CN(C)c1ccnc2sc3c(=O)n(C4Cc5ccccc5C4)cnc3c12 [15Y] | < 50
CC1CCC(n2cnc3c(sc4nccc(N(C)C)c43)c2=O)CC1 (centres unmarked) [15Z] | < 50
COc1ccnc2sc3c(=O)n(C4CCCCC4)cnc3c12 [25A] | 150 to 1000
COc1ccc(-n2cnc3c(sc4nccc(OC)c43)c2=O)cc1 [25B] | 150 to 1000
COc1ccnc2sc3c(=O)n(-c4ccc(C)cc4)cnc3c12 [25C] | 50 to 150
COc1ccnc2sc3c(=O)n(-c4ccc5scnc5c4)cnc3c12 [25D] | 150 to 1000

— patent publication US7989464B2, “mGluR1 antagonists as therapeutic agents” (Schering Corporation, priority 2004, dated 2011)
